This note sets out measurements from ChEMBL document CHEMBL1287803, “Synthesis of 4β-N-polyaromatic substituted podophyllotoxins: DNA topoisomerase inhibition, anticancer and apoptosis-inducing activities” (Bioorg Med Chem, 2010).

The nature of experiment [1]: Anticancer activity against human 502713 cells assessed as cell viability after 48 hrs by SRB assay. Format: functional, cell-based. Particulars: Homo sapiens, 502713, 48 h.
The subject of another experiment is HCT-15. The experiment is described as follows: Anticancer activity against human HCT15 cells assessed as cell viability after 48 hrs by SRB assay. Format: functional, cell-based. The note with it: HCT-15, 48 h. (Sulforhodamine B stains cellular protein and so reports cell mass.)
The next experiment concerns HEp-2. The experiment is described as follows: Anticancer activity against human Hep2 cells assessed as cell viability after 48 hrs by SRB assay. Format: functional, cell-based. The note with it: HEp-2, 48 h.
Another experiment concerns IMR-32. The experiment is described as follows: Anticancer activity against human IMR32 cells assessed as cell viability after 48 hrs by SRB assay. Format: functional, cell-based. Particulars: IMR-32, 48 h.
The next experiment concerns A549. Nature of the experiment: Anticancer activity against human A549 cells assessed as cell viability after 48 hrs by SRB assay. Format: functional, cell-based. The note with it: A549, 48 h.
In a further experiment the test system is DU-145. Nature of the experiment: Anticancer activity against human DU145 cells assessed as cell viability after 48 hrs by SRB assay. Format: functional, cell-based. Particulars: DU-145, 48 h.
Another experiment relates to PC-3. Nature of the experiment: Anticancer activity against human PC3 cells assessed as cell viability after 48 hrs by SRB assay. Format: functional, cell-based. The note with it: PC-3, 48 h.
Experiment [2] is described as follows: Inhibition of DNA topoisomerase 2 assessed as inhibition of relaxation of supercoiled pBR322 plasmid DNA at 10 to 500 uM by gel electrophoresis.
The nature of experiment [3]: Inhibition of DNA topoisomerase 2 assessed as inhibition of relaxation of supercoiled pBR322 plasmid DNA at 1 mM by gel electrophoresis.
Experiment [4] can be described thus: Inhibition of DNA topoisomerase 2 assessed as inhibition of relaxation of supercoiled pBR322 plasmid DNA at 10 uM by gel electrophoresis.
Experiment [5] deals with MOLT-4. The experiment is described as follows: Induction of apoptosis in human MOLT4 cells assessed as DNA fragmentation at 0.5 uM after 24 hrs by agarose gel electrophoresis. Format: functional, cell-based.
Experiment [6] has as its system MOLT-4. The experiment is described as follows: Induction of apoptosis in human MOLT4 cells assessed as DNA fragmentation at 1 uM after 24 hrs by agarose gel electrophoresis. Format: functional, cell-based.
Experiment [7] deals with MOLT-4. The experiment is described as follows: Induction of apoptosis in human MOLT4 cells assessed as DNA fragmentation at 5 uM after 24 hrs by agarose gel electrophoresis. Format: functional, cell-based.
Experiment [8] deals with MOLT-4. Nature of the experiment: Induction of apoptosis in human MOLT4 cells assessed as DNA fragmentation at 10 uM after 24 hrs by agarose gel electrophoresis. Format: functional, cell-based.
In experiment [9] the test system is MOLT-4. Nature of the experiment: Cell cycle arrest in human MOLT4 cells assessed as accumulation at sub G1 phase at 0.5 uM after 24 hrs using propidium iodide staining by flow cytometry. Format: functional, cell-based. A general note: Flow cytometry measures light scatter and fluorescence of single cells or particles in a stream.
Experiment [10] has as its system MOLT-4. The experiment is described as follows: Cell cycle arrest in human MOLT4 cells assessed as accumulation at sub G1 phase at 1 uM after 24 hrs using propidium iodide staining by flow cytometry. Format: functional, cell-based.
Experiment [11] concerns MOLT-4. The experiment is described as follows: Cell cycle arrest in human MOLT4 cells assessed as accumulation at sub G1 phase at 5 uM after 24 hrs using propidium iodide staining by flow cytometry. Format: functional, cell-based.
The subject of experiment [12] is MOLT-4. Nature of the experiment: Cell cycle arrest in human MOLT4 cells assessed as accumulation at sub G1 phase at 10 uM after 24 hrs using propidium iodide staining by flow cytometry. Format: functional, cell-based.

pIC50: −log10 of the molar value. The source made the active and inactive calls. No cut-off for these calls is given here.

As a reminder, the pIC50 is −log10 of the IC50, conventionally taken in molar units.

For `COc1cc([C@@H]2c3cc4c(cc3[C@@H](Nc3ccc(C(=O)c5ccc(F)cc5)cc3)[C@H]3COC(=O)[C@H]23)OCO4)cc(OC)c1O`, the pIC50 in experiment [1] is 5.85; in the experiment with HCT-15, 7.10; in the experiment with HEp-2, 5.89; in the experiment with IMR-32 it was 5.89; with A549, 6.70; in the experiment on DU-145, 6.52. In addition, in the experiment with PC-3, the pIC50 was 5.22.
As to `O=c1[nH]cc(F)c(=O)[nH]1` [FLUOROURACIL], the pIC50 in experiment [1] is 5.34; in the experiment with HCT-15, 5.44; in the experiment on HEp-2, 6.52; in the experiment on IMR-32, 4.74; in the experiment on A549, 5.62; with DU-145 it was 5.32. Further, the pIC50 with PC-3 was 4.92.
With `COc1cc([C@@H]2c3cc4c(cc3[C@@H](Nc3cc5c6ccccc6ccc5c5ccccc35)[C@H]3COC(=O)[C@H]23)OCO4)cc(OC)c1O`, the inhibition result in experiment [2] and in experiment [3] was “Active” each time. In addition, the pIC50 in [1] is 7.00; in the experiment on HCT-15, 7.00; in the experiment with HEp-2, 8.00; in the experiment on IMR-32 it was 9.00; with A549 it was 9.52; in the experiment on DU-145 it was 9.52. Moreover, the pIC50 in the experiment with PC-3 is 9.52.
On to `COc1cc([C@@H]2c3cc4c(cc3[C@@H](Nc3ccc5ccc6cccc7ccc3c5c67)[C@H]3COC(=O)[C@H]23)OCO4)cc(OC)c1OC`, for which the inhibition entry in experiment [2] and in experiment [3] was “Active” in each case. For the same compound, the negative logarithm of the IC50 (pIC50) is 8.70 in experiment [1], 10.00 in the experiment with HCT-15, 9.05 in the experiment with A549 and 10.00 in the experiment with PC-3.
Take `COc1cc([C@@H]2c3cc4c(cc3[C@@H](Nc3ccc5ccc6cccc7ccc3c5c67)[C@H]3COC(=O)[C@H]23)OCO4)cc(OC)c1O`: the pIC50 was 8.70 in experiment [1]; 10.00 with HCT-15; 9.70 with HEp-2; 6.70 with IMR-32; 5.77 in the experiment on A549; 5.66 with DU-145.
As to `COc1cc([C@@H]2c3cc4c(cc3[C@@H](Nc3cccc5c3Cc3ccccc3-5)[C@H]3COC(=O)[C@H]23)OCO4)cc(OC)c1O`, the negative-log IC50 (pIC50) was 9.00 in experiment [1]; 10.00 with HCT-15; 6.00 with HEp-2; 5.00 with IMR-32; 6.00 in the experiment on A549; 5.57 in the experiment with DU-145. Also, in the experiment with PC-3, the negative-log IC50 (pIC50) was 6.30.
Regarding `COc1cc([C@@H]2c3cc4c(cc3[C@@H](Nc3ccc(C(=O)c5ccc(N(CCCl)CCCl)cc5)cc3)[C@H]3COC(=O)[C@H]23)OCO4)cc(OC)c1OC`, the negative logarithm of the IC50 (pIC50) in experiment [1] was 7.00; with HCT-15, 6.05; in the experiment with HEp-2, 6.05; with IMR-32, 5.20; with A549, 5.51; in the experiment with DU-145 it was 5.43. Also, in the experiment on PC-3, the pIC50 is 5.59.
In the case of `COc1cc([C@@H]2c3cc4c(cc3[C@@H](Nc3ccc(C(=O)c5ccc(F)cc5)cc3)[C@H]3COC(=O)[C@H]23)OCO4)cc(OC)c1OC`, the pIC50 is 5.39 in [1]; 5.21 in the experiment on HCT-15; 5.15 in the experiment on HEp-2; 4.72 in the experiment with IMR-32; 4.77 in the experiment on A549; 5.17 in the experiment on PC-3.
In the case of `COc1cc([C@@H]2c3cc4c(cc3[C@@H](O[C@@H]3O[C@@H]5CO[C@@H](C)O[C@H]5[C@H](O)[C@H]3O)[C@H]3COC(=O)[C@H]23)OCO4)cc(OC)c1O` [ETOPOSIDE], in experiment [4], the inhibition result is “Active”. In addition, the pIC50 in experiment [1] is 7.00; in the experiment on HCT-15, 6.05; in the experiment with HEp-2, 6.05; in the experiment with IMR-32 it was 5.20; with A549, 5.51; in the experiment on DU-145, 5.43. In addition, the pIC50 with PC-3 is 5.59.
`COc1cc([C@@H]2c3cc4c(cc3[C@@H](Nc3cccc5cc6ccccc6cc35)[C@H]3COC(=O)[C@H]23)OCO4)cc(OC)c1OC`: the pIC50 in [1] was 5.03; in the experiment on HCT-15, 5.20; in the experiment with HEp-2, 5.17; in the experiment on IMR-32, 5.17; in the experiment with A549 it was 5.06; in the experiment with DU-145, 4.68. In addition, the pIC50 in the experiment on PC-3 was 5.10.
Take `COc1cc([C@@H]2c3cc4c(cc3[C@@H](Nc3cc5c6ccccc6ccc5c5ccccc35)[C@H]3COC(=O)[C@H]23)OCO4)cc(OC)c1OC`: the outcome in the experiment with MOLT-4 [5], in the experiment with MOLT-4 [6], in the experiment on MOLT-4 [7], with MOLT-4 [8], in the experiment with MOLT-4 [9] and in the experiment on MOLT-4 [10] was Active. Further, the result in the experiment on MOLT-4 [11] and in the experiment on MOLT-4 [12] was Active. In addition, the inhibition entry in [2] and in [3] was “Active” each time. Also, the pIC50 in experiment [1] is 7.00; in the experiment on HCT-15, 8.70; with HEp-2, 8.70; with IMR-32, 8.52; in the experiment on A549, 7.40; in the experiment on DU-145, 5.66. For the same compound, the pIC50 in the experiment with PC-3 is 7.00.
With `COc1cc([C@@H]2c3cc4c(cc3[C@@H](Nc3cccc5cc6ccccc6cc35)[C@H]3COC(=O)[C@H]23)OCO4)cc(OC)c1O`, the pIC50 with HCT-15 was 5.09; in the experiment on HEp-2, 5.07; in the experiment on IMR-32, 5.64; in the experiment on A549, 5.08; in the experiment with DU-145, 4.74.
Turning to `COc1cc([C@@H]2c3cc4c(cc3[C@@H](Nc3cccc5c3Cc3ccccc3-5)[C@H]3COC(=O)[C@H]23)OCO4)cc(OC)c1OC`, the negative-log IC50 (pIC50) in [1] is 5.26; in the experiment with HCT-15 it was 7.05; in the experiment with HEp-2, 5.52; in the experiment on IMR-32, 5.26; in the experiment on A549 it was 5.15; in the experiment with DU-145 it was 5.18. Besides, the pIC50 with PC-3 was 5.37.
On to `CC[C@@]1(O)C(=O)OCc2c1cc1n(c2=O)Cc2cc3ccccc3nc2-1` [CAMPTOTHECIN], for which, in the experiment on MOLT-4 [11], the result was Active. The pIC50 in the experiment on HCT-15 is 7.17; in the experiment on HEp-2 it was 6.15; with IMR-32, 7.10; in the experiment on A549, 7.52; in the experiment on DU-145, 7.70; with PC-3 it was 7.52.
